In patent publication US9943497B2, “Pharmaceutical composition for preventing or treating pulmonary fibrosis” (GACHON UNIVERSITY OF INDUSTRY-ACADEMIC COOPERATION …, priority 2013, dated 2018):

Experiments:
Assay type in all cases: in vivo
[1] = tested on: pulmonary fibrosis induced by administration of Bleomycin (BLM); assay: Histological examination (H&E and Masson-trichrome staining, Image J) of lung tissue in pulmonary fibrosis-induced animals; conditions: BLM-treated C57BL/6 mice; oral, every day; SFN 50 μg/kg, Met 25 mg/kg, singly or together; lung tissue at 28 days; vs BLM alone
Description: In detail, C57BL/6 mice were administered with combination of BLM, SFN and metformin (Met) which is one of BG agents, and control groups and experimental groups were prepared: a control group that was orally administered with sterile physiological saline (SA) and orally administered with distilled water; an experimental group (BLM) that was administered with BLM and orally administered with distilled water; an experimental group (BLM+SFN) that was administered with BLM and orally administered with 50 μg/kg of SFN; an experimental group (BLM+MET) that was administered with BLM and orally administered with […] of Met; and an experimental group (BLM+SFN+MET) that was administered with BLM and orally administered with 50 μg/kg of SFN and 25 mg/kg of Met. […] The fixed lung tissues were stained by the H&E staining method and the Masson-trichrome staining method, and the stained lung tissues were evaluated by Image J assay to assess and compare lung damage and lung fibrosis (FIGS. 1a to 1c).

[2] = tested on: TGF-β1 (transforming growth factor β1); assay: Western blot analysis for TGF-β1 in lung tissue and serum samples; conditions: BLM-treated C57BL/6 mice; oral, every day; SFN 50 μg/kg, Met 25 mg/kg, singly or together; lung tissue and serum at 28 days; vs BLM alone
Description: (§1) In detail, C57BL/6 mice were administered with combination of BLM, SFN and metformin (Met) which is one of BG agents, and control groups and experimental groups were prepared: a control group that was orally administered with sterile physiological saline (SA) and orally administered with distilled water; an experimental group (BLM) that was administered with BLM and orally administered with distilled water; an experimental group (BLM+SFN) that was administered with BLM and orally administered with 50 μg/kg of SFN; an experimental group (BLM+MET) that was administered with BLM and orally administered with 25 mg/hg of Met; and an experimental group (BLM+SFN+MET) that was administered with BLM and orally administered with 50 μg/kg of SFN and 25 mg/kg of Met. At this time, C57BL/6 mice were administered with 2.5 unit of BLM by intratracheal injection under anesthesia at the experiment initiation day and 14 days, and the mice were administered with SFN and Met every day during the experimental period from the next day after the first administration of BLM, and the mice of the control group and experimental groups were raised for 28 days after the experiment initiation day.
The animal models of the control group and the experimental groups that were prepared in Example 1 and raised for 28 days were sacrificed. The lung tissues and serum samples were obtained from these animal models. […]

fibronectin = assay: Western blot analysis for fibronectin in lung tissue and serum samples; conditions: BLM-treated C57BL/6 mice; oral, every day; SFN 50 μg/kg, Met 25 mg/kg, singly or together; lung tissue and serum at 28 days; vs BLM alone
Description: as §1
(§2) The lung tissues and serum samples were obtained from these animal models. […]

[3] = tested on: AGE (advanced glycation end products); assay: Western blot analysis, Ponceau staining and ELISA for AGE in lung tissue and serum samples; conditions: BLM-treated C57BL/6 mice; oral, every day; SFN 50 μg/kg, Met 25 mg/kg, singly or together; lung tissue and serum at 28 days; vs BLM alone
Description: as §1, §2

SMILES: CN(C)C(=N)N=C(N)N [Met, metformin]
- level of fibrous tissue (damaged fibrous regions, H&E and Masson-trichrome staining) [1]: slightly reduced
- TGF-β1 levels (Western blot) [2]: reduced TGF-β1 levels
- fibronectin levels (Western blot) (fibronectin): reduced fibronectin levels
- AGE level (Western blot, ELISA) [3]: slightly reduced AGE level

SMILES: C[S+]([O-])CCCCN=C=S (centres unmarked) [SFN, sulforaphane]
- level of fibrous tissue (damaged fibrous regions, H&E and Masson-trichrome staining) [1]: statistically significant reduction
- TGF-β1 levels (Western blot) [2]: reduced TGF-β1 levels
- fibronectin levels (Western blot) (fibronectin): reduced fibronectin levels
- AGE level (Western blot, ELISA) [3]: reduced
